According to patent US11117901B2, “Substituted pyrazolo[4,3-h]quinazolines as choline kinase inhibitors” (NERVIANO MEDICAL SCIENCES S.R.L., priority 2017, dated 2021):

How the values were obtained:
Δ49N-hChoKα = target: T1, Δ49N-hChoKα (Homo sapiens, UniProt P35790); test: Biochemical kinase inhibition assay (Kinase-Glo luminescent) on Δ49N-hChoKα; conditions: recombinant Δ49N-hChoKα 2.2 nM, ATP 5 μM, choline 5 μM, 60 min rt; read-out: ChoKα IC50
T1 construct: cDNA fragment 362-1534, corresponding to aminoacids 50 457; GST (N, cleaved yes); PreScission Protease recognition site (N); made in house; host or cells: Escherichia coli BL21pLysS (DE3)
Protocol: (§1) HumanΔ49ChoKα ([…]Δ49N-hChoKα) cDNA fragment 362-1534, corresponding to aminoacids 50 457 (J. Mol. Biol. 2006, 364, 136-151), and hChoKβ full length (FL), corresponding to aminoacids 2-395 ((PLoS ONE 2009, 4, e7819), were amplified by PCR from human library and cloned, inserting upstream a Prescission Protease recognition site, in pDonor 221 vector, using the Gateway Technology® (Invitrogen). After sequence control, LR reaction was performed in the final expression pGEX 2Tg vector. Both the proteins were expressed in Escherichia coli BL21pLysS (DE3) strain in auto-induction (Kessler) medium in the presence of […] carbenicillin at 25° C. for 16 h. Cells were harvested by centrifugation, the pellet was re-suspended in Lysis buffer (50 mM Tris-HCl pH 7.8, 150 mM NaCl, 10% glycerol, 0.2% CHAPS, 20 mM DTT, Protease Inhibitor Cocktail Tablets from Roche Biochemicals) and lysed by Gaulin homogenizer (Niro Soavi). The lysate was cleared by centrifugation. The supernatant was added to GSH resin and let flow by gravity. The GSH resin was washed with 5 column volume (CV) of cold wash buffer (50 mM Tris-HCl pH 7.8, 150 mM NaCl, 10% glycerol), then with 10 CV of the same buffer containing 2 mM of DTT. Both GST-Δ49N-hChoKα and hChoKβ were subjected to on-column cleavage of the GST tag with Prescission Protease overnight. The eluted cleaved proteins were further purified by ion exchange (ResQ 6 mL chromatography column from GE healthcare) with a gradient from 50 to 500 mM NaCl in 30 CV. The fractions containing […]Δ49N-hChoKα or hChoKβ were pooled, concentrated and gel filtered on a Superdex200 16/60 (GE Healthcare). The final protein concentration was estimated using the Bradford assay. All the samples purified were resolved by SDS-PAGE.
(§2) Biochemical Kinase inhibition Assay on Δ49N-hChoKα and hChoKβFL
(§3) The biochemical activity of compounds against Δ49N-ChoKα and ChoK3 FL were determined using the Kinase-Glo™ Luminescent Kinase Assay (Promega cat. V6711). The assay is based on incubation of the recombinant Δ49N-hChoKα and hChoKβ FL produced in house, 2.2 nM and 30 nM, respectively, with the specific substrates, choline (Sigma-Aldrich-C7017) and ATP, followed by quantification, at the end of reaction time, of the residual not reacted ATP.
(§4) Compounds were 3-fold serially diluted from 10 to 0.0005 μM, then incubated for 60 minutes at room temperature in the presence of ATP 5 μM, choline (5 μM for ChoKα and 20 μM for ChoKβ) and enzyme in a final volume of 19 μL of kinase buffer (50 mM Hepes pH 7.5, 10 mM MgCl2, 1 mM DTT, 3 μM Na3VO4 and 0.2 mg/mL BSA). The final concentration of DMSO was 1%. The assay was run in a robotized format on 384-well plates (Perkin Elmer cat. #6005301).
(§5) At the end of the incubation, an amount of 19 μL of KinaseGlo Reagent was added to each well to stop the reaction and after 30 minutes the luminescence signal was measured using ViewLux reader (Perkin Elmer).
(§6) All information about plate dilution, distribution and raw data of inhibition are tracked via barcode reading and stored in an Oracle DB. The data per each molecule are analyzed by an internally customized version of the SW package “Assay Explorer” which provides sigmoidal fittings of the ten-dilution curves for IC50 determination using a 4 parameter logistic equation: y=bottom+(top−bottom)/(1+10^((log IC50−x)*slope)) where x is the logarithm of the inhibitor concentration, y is the response; y starts at bottom and goes to top with a sigmoid shape.

hChoKβ FL = target: T2, hChoKβ FL (Homo sapiens, UniProt Q9Y259); test: Biochemical kinase inhibition assay (Kinase-Glo luminescent) on hChoKβ FL; conditions: recombinant hChoKβ FL 30 nM, ATP 5 μM, choline 20 μM, 60 min rt; read-out: ChoKβ IC50
T2 construct: hChoKβ full length (FL), corresponding to aminoacids 2-395; GST (N, cleaved yes); PreScission Protease recognition site (N); made in house; host or cells: Escherichia coli BL21pLysS (DE3)
Protocol: as §1, §2, §3, §4, §5, §6

T2 sequence (Q9Y259 2-395): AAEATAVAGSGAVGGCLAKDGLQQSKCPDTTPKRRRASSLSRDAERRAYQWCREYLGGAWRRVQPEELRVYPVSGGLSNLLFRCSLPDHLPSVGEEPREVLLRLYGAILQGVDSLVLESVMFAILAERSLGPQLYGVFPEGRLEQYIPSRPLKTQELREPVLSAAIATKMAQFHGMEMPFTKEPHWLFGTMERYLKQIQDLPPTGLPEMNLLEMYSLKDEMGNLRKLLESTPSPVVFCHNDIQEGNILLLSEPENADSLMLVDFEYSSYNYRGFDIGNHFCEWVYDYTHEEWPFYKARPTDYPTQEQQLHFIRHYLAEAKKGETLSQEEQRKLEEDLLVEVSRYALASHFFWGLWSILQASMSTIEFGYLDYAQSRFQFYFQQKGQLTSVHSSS
T1 sequence (P35790 50-439 isoform P35790-2): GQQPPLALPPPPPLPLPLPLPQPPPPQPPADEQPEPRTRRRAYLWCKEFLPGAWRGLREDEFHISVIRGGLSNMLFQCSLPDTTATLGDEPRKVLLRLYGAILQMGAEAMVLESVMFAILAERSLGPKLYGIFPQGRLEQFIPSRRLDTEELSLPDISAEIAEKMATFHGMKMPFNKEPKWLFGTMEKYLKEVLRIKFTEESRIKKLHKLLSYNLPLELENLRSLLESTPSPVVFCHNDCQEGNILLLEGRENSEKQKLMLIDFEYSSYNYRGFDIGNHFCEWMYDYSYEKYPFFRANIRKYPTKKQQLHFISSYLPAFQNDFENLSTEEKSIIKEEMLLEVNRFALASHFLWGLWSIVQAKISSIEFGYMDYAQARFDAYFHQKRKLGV

SMILES	IC50 (Δ49N-hChoKα)	IC50 (hChoKβ FL)
CC1(C)Cc2cnc(N)nc2-c2[nH]nc(C(=O)Nc3nc(CC(N)=O)cs3)c21 [compound 94]	73 nM	1420 nM
CC1(C)Cc2cnc(N)nc2-c2[nH]nc(C(=O)Nc3nc(CC(=O)N4CC[C@H](O)C4)cs3)c21 [compound 88]	141 nM	> 10000 nM
COc1ccc(NC(=O)c2n[nH]c3c2C(C)(C)Cc2cnc(N)nc2-3)cc1 [compound 2]	247 nM	974 nM
CC1(C)Cc2cnc(N)nc2-c2[nH]nc(C(=O)Nc3ncc(CC(=O)N4CCC(N5CCCCC5)CC4)s3)c21 [compound 75]	47 nM	1750 nM
CC1(C)Cc2cnc(N)nc2-c2[nH]nc(C(=O)Nc3nc(C(=O)NC4CCCCC4)cs3)c21 [compound 68]	161 nM	> 10000 nM
CCOC(=O)Cc1csc(NC(=O)c2n[nH]c3c2C(C)(C)Cc2cnc(N)nc2-3)n1 [compound 33]	430 nM	> 10000 nM
CC1(C)Cc2cnc(N)nc2-c2[nH]nc(C(=O)Nc3ccc4c(c3)OCO4)c21 [compound 4]	244 nM	1120 nM
CC1(C)Cc2cnc(N)nc2-c2[nH]nc(C(=O)Nc3cccc(C(=O)NC4CCCCC4)c3)c21 [compound 25]	253 nM	625 nM
CC1(C)Cc2cnc(N)nc2-c2[nH]nc(C(=O)Nc3ccc(C(=O)Nc4ccc(CN5CCCCC5)cc4)cc3)c21 [compound 59]	32 nM	734 nM
CC1(C)Cc2cnc(N)nc2-c2[nH]nc(C(=O)Nc3ccc(C(=O)NC4CCOCC4)cc3)c21 [compound 11]	195 nM	395 nM
CC1(C)Cc2cnc(N)nc2-c2[nH]nc(C(=O)Nc3cccc(C4OCCCO4)c3)c21 [compound 106]	343 nM	5200 nM
CC1(C)Cc2cnc(N)nc2-c2[nH]nc(C(=O)N3CCN(c4ccccc4)CC3)c21 [compound 161]	507 nM	> 10000 nM
CC1(C)Cc2cnc(N)nc2-c2[nH]nc(C(=O)N3CCC(N4CCCCC4)CC3)c21 [compound 38]	682 nM	> 10000 nM
CC1(C)Cc2cnc(N)nc2-c2[nH]nc(C(=O)Nc3nc(C4(C(=O)N5CCC(N6CCCCC6)CC5)CC4)cs3)c21 [compound 131]	233 nM	3940 nM
CC1(C)Cc2cnc(N)nc2-c2[nH]nc(C(=O)Nc3cccc(C=O)c3)c21 [compound 107]	737 nM	2680 nM
CC1(C)Cc2cnc(N)nc2-c2[nH]nc(C(=O)Nc3ccc(CC(=O)N4CCC(N5CCCCC5)CC4)cc3)c21 [compound 98]	57 nM	1290 nM

Compounds with a lower IC50 (Δ49N-hChoKα), results first:

IC50 (Δ49N-hChoKα)	IC50 (hChoKβ FL)	SMILES
11 nM	928 nM	CC1(C)Cc2cnc(N)nc2-c2[nH]nc(C(=O)Nc3nc(CC(=O)NC4CCN(C5CCCCC5)CC4)cs3)c21 [compound 145]
31 nM	1560 nM	CC1(C)Cc2cnc(N)nc2-c2[nH]nc(C(=O)Nc3nc(COC4CCN(C5CCC(F)(F)CC5)CC4)cs3)c21 [compound 189]
20 nM	376 nM	CC1(OCc2csc(NC(=O)c3n[nH]c4c3C(C)(C)Cc3cnc(N)nc3-4)n2)CCN(C2CCCCCC2)CC1 [compound 226]
8 nM	457 nM	CC1(C)Cc2cnc(N)nc2-c2[nH]nc(C(=O)Nc3nc(COC4CCN(CC5CCCCC5)CC4)cs3)c21 [compound 212]
2 nM	81 nM	CC1CCN(C2CCN(C(=O)Cc3csc(NC(=O)c4n[nH]c5c4C(C)(C)Cc4cnc(N)nc4-5)n3)CC2)CC1 [compound 58]
18 nM	840 nM	CC1(C)Cc2cnc(N)nc2-c2[nH]nc(C(=O)Nc3nc(CC(=O)N4CCC(N5CCC(F)(F)CC5)CC4)cs3)c21 [compound 229]
2 nM	296 nM	CC1(C)CCCN(C2CCN(C(=O)Cc3csc(NC(=O)c4n[nH]c5c4C(C)(C)Cc4cnc(N)nc4-5)n3)CC2)C1 [compound 219]
11 nM	> 10000 nM	CNc1ncc2c(n1)-c1[nH]nc(C(=O)Nc3nc(CC(=O)N4CCC(N5CCC(C)CC5)CC4)cs3)c1C(C)(C)C2 [compound 122]
